From US8629330B2, “Methods and compositions for the inhibition of meristematic growth on cucurbit rootstock” (Syngenta Participations AG, priority 2012, dated 2014) come the findings set out here.

Data set [1] deals with shoot apical meristem of cucurbit rootstock plant. The data set can be described thus: Inhibition of the shoot apical meristem of cucurbit rootstock. The format is in vivo. The following applies: fatty alcohols about 2.3% (v/v); Oryzalin about 10 mM; sulfuric acid about 18N to about 9N; applied to shoot apical meristem.
Excerpt: Rootstock plants, bottle gourd (Lagenaria siceraria var. ‘Emphasis’) or interspecific hybrid squash (C. maxima×C. moschata var. ‘Carnivor’), were sown in Fafard 3-b fertilizer-free mix and allowed to germinate. At the point when the cotyledons unfolded, (approx. 5-10 days after seeding) a droplet of a composition comprising fatty alcohols was applied to the shoot apical meristem of the seedling, between the cotyledons, so that the meristem was covered with solution. […] The droplet volume was 20 to 500 μL and was applied with a pipette (20-200 μL or 1000 μL volume capability, using plastic tips). Seedlings were watered prior to treatment, to avoid needing to water post-treatment, which can dilute or wash away the fatty alcohol solution and prevent burnout of the shoot apical meristem. The treated rootstock seedlings can then be grafted to the appropriate scion at about 1 to 21 days post-treatment. In this case, the rootstock seedling was grafted to a cucurbit scion at about 24 hours after the rootstock shoot apical meristem was first contacted with the fatty alcohol composition.
Maleic hydrazide (21.7%; Royal MH-30®; Chemtura Corp., Middlebury, Conn.) at a concentration of about 90 mg/ml was applied to the shoot apical meristem of rootstock plant. The treated rootstock plants were incubated for about 24 hours prior to grafting to a scion.
The test system of data set [2] is cucurbit rootstock seedling grafted to watermelon or melon scion.
Description: Grafting can be performed at about 1-21 days after a rootstock shoot apical meristem is treated with a fatty alcohol solution. Possible grafting methods include the following: 1) hole-insertion, in which the rootstock meristem is removed, a hole is punched into the old meristematic area with a bamboo needle, and the scion (cut at the end to both sharpen and expose vascular cambium tissue) is inserted into the prepared rootstock; and 2) one cotyledon, where the rootstock's meristem area and one cotyledon are removed, and the cut scion hypocotyl is adjoined to the resulting wound, stabilized with a clip, and allowed to heal. Once grafted, the plants are placed for approximately seven days in a healing chamber under high humidity for about the first 1-3 days, and then gradually decreasing humidity for the remaining days. After about seven days of healing, the grafted plants can be removed from the chamber and planted.
In this case, the cucurbit rootstock seedling as described in Example 1 was grafted to a cucurbit scion, watermelon (Citrullus lanatus subsp. vulgaris cv. ‘Tri-X-313’) or melon (Cucumis melo cv. ‘Athena’) at about 24 hours after the rootstock shoot apical meristem was first contacted with the fatty alcohol composition. Seven days were allowed for the graft to heal. […]

SMILES strings stand for the structures.

Regarding `O=S(=O)(O)O` [sulfuric acid, Sulfuric acid], the “effect on rootstock shoot apical meristem” value in data set [1] was “death of the shoot apical meristem”. The “successful grafts out of 2016 attempted grafts” value in data set [2] (grafted about 24 hours after treatment, fatty alcohols about 2.3% (v/v), maleic hydrazide about 90 mg/ml, Oryzalin about 10 mM, sulfuric acid about 18N to about 9N) is listed as “none were successful”. The “effect on grafting tissues” value in data set [2] (sulfuric acid about 18N to about 9N applied to shoot apical meristem) is recorded as “the grafting tissues were also destroyed”.
